Experiments:
[1] = pH of 20 mg/mL (2%) aqueous solution; assay type: physicochemical; conditions: 20 mg/mL in DI water
Method: pH studies are conducted to show the pH of Nu-8 compared to Bisphosphocin® compounds Nu-2, Nu-4, and Nu-5. 20 mg/mL Nu-2 solution is prepared by diluting 2 mL of 250 mg/mL Nu-2 solution with 23 mL DI water. 20 mg/mL Nu-4 and Nu-5 solutions are prepared in the same way. 401.65 mg Nu-8 is weighed in a 5 mL volumetric flask and diluted with DI water to volume. 20 mg/mL Nu-8 solution is prepared by diluting 5 mL of 80.3 mg/mL Nu-8 solution with 15 mL DI water. The pH values of 4 Nu-2, Nu-4, Nu-5, and Nu-8 at 20 mg/mL are measured with a calibrated pH meter. Also shown in TABLE 2 is a summary of other physical properties of the compound of Formula (I) and reference compounds Nu-2, Nu-4, and Nu-5.

[2] = Pow (partition coefficient); assay type: physicochemical
[3] = system: P. aeruginosa K2732; assay: Bacterial cytological profiling (Example 6), P. aeruginosa; assay type: cell-based; conditions: for effect on cell envelope: BCP; for cell membrane permeability: buffered pH 4 or unbuffered LB;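 as to effect on cell envelope: tested at 1 0.5 and 0.25 times MIC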
Method: (§1) This bacterial cytological profiling (BCP) study uses methods and materials described previously by Nonejuie, P., Burkart, M., Poglianoa, K., Pogiano, J. (2013). Bacterial cytological profiling rapidly identifies the cellular pathways targeted by antibacterial molecules. Proc. Natl. Acad. Sci. U.S.A. 110(40):16169-16174. doi: 10.1073/pnas.1311066110.
(§2) Wild type strains of E. coli ATCC 25922 or P. aeruginosa K2732 are grown in rich media (unbuffered 2× Lysogeny broth [LB]) at 30 C to an OD600˜0.4. These cultures are then split and each sample treated with the appropriate concentration of Nu-8 in unbuffered or buffered LB (final mixture OD600˜0.1). Cells exposed without Nu-8 are buffered to pH 4 with phosphoric acid.
(§3) The BCP is performed in LB media buffered to pH 4. The minimum inhibitory concentration (MIC) is measured for Nu-3, Nu-4, Nu-5, and Nu-8 against each bacterial strain. As one of ordinary skill in the art understands, minimum inhibitory concentrations are the lowest concentration of an antimicrobial that will inhibit the visible growth of a microorganism after overnight incubation. […] Cellular viability is assayed at three time points (5 minutes and 4 and 24 h following the onset of treatment).
(§4) For imaging E. coli, treated cells are stained with 1 μg/Ml FM4-64, 2 μg/mL DAPI, and 0.5 μM SYTOXGreen (Molecular Probes/Invitrogen). P. aeruginosa samples are stained 0.5 μM SYTOX Green, 28 μg/mL DAPI, and 4.5 μg/mL FM 4-64. Cells are transferred to an agarose pad (20% LB, 1% agarose) for imaging as described in Pogliano, J., Osborne, N., Sharp, M. D., Abanes-De Mello, A., Perez, A., Sun, Y.-L. and Pogliano, K. (1999), A vital stain for studying membrane dynamics in bacteria: a novel mechanism controlling septation during Bacillus subtilis sporulation. Molecular Microbiology, 31: 1149-1159. doi:10.1046/j.1365-2958.1999.01255.x.

[4] = system: E. coli ATCC 25922; assay: Bacterial cytological profiling (Example 6), E. coli; assay type: cell-based; conditions: for effect on cell envelope: BCP; for cell membrane permeability: buffered pH 4 or unbuffered LB; for DNA condensation: higher treatment concentrations, buffered pH 4; for cell wall deformations: unbuffered LB;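 as to cell wall deformations: tested at 1 0.5 and 0.25 times MIC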;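 as to effect on cell envelope: tested at 1 0.5 and 0.25 times MIC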
Method: as §1, §2, §3, §4

[5] = system: Escherichia coli (strain CFT073, TPPS 1041); assay: Urinary tract infection model in BALB/c mice, initial efficacy (Example 10); assay type: in vivo; conditions: 50 mg/kg transurethral at 24 hr, 60 minutes post-treatment
Source text: Female BALB/c mice (20-22 g) ordered from Envigo are acclimated to housing conditions and handled in accordance with Animal Use Protocol (AUP) number TP-08. Animals are fed irradiated Teklad Global 29 18 Rodent Diet and water ad libitum. Mice are housed 6/cage in static cages with irradiated ⅛″ Teklad corn cobbedding 7902 inside bioBubble® clean rooms that provide H.E.P.A filtered air into the bubble environment at 100 complete air changes per hour. The environment is controlled to a temperature range of 74°±4° F. and a humidity range of 30-70%. All procedures carried out in this experiment are conducted in compliance with the laws, regulations, and guidelines of the National Institutes of Health and with the approval of the TransPharm Preclinical Solutions Animal Care and Use Committee.
A clinical isolate of Escherichia coli (strain CFT073, TPPS 1041) are procured from the University of Michigan.
The organism is grown overnight at 37° C. in ambient atmosphere on trypticase soy agar plates supplemented with 5% sheep blood cells. The culture is aseptically swabbed and transferred to tubes of trypticase soy broth. The optical density is determined at 600 nm. The culture is diluted to provide an inoculum of approximately 7.5 log10 CFU per mouse in a volume of 30 μL. Instillation of the bacterial challenge constituted time 0 hour for the study. Inoculum counts are estimated before inoculation by optical density and confirmed after inoculation by dilution and back counts.
One hour prior to bacterial challenge, water is removed from animal cages. […]
The primary endpoint used to assess progress of the infection is mean bacterial burden per gram of urinary bladder tissue. […] Colony forming units (CFU) are enumerated and the total bacterial burden per gram of urinary bladder tissue homogenate is calculated.
The geometric mean CFU, along with standard error of the mean (SEM), are calculated using Microsoft Excel and bar charts are prepared for the data using GraphPad Prism v. […]

CCCCOP(=O)(O)OCCOCCOP(=O)(O)OCCCC [Nu-5]
pH (2% solution) [1]: 0.93 | Pow [2]: 0.0480 | effect on cell envelope [3]: affect the cell envelope | cell membrane permeability [3]: increase cell membrane permeability | effect on cell envelope [4]: affect the cell envelope | cell membrane permeability [4]: increase cell membrane permeability | DNA condensation [4]: causes DNA condensation | cell wall deformations [4]: cause cell wall deformations

CCCCOP(=O)(O)OC[C@H]1O[C@@H](n2cc(C)c(=O)[nH]c2=O)C[C@H]1OP(=O)(O)OCCCC [Nu-4]
pH (2% solution) [1]: 0.94 | Pow [2]: 0.0592 | effect on cell envelope [3]: affect the cell envelope | cell membrane permeability [3]: increase cell membrane permeability | effect on cell envelope [4]: affect the cell envelope | cell membrane permeability [4]: increase cell membrane permeability | DNA condensation [4]: causes DNA condensation | cell wall deformations [4]: cause cell wall deformations

gentamicin [reference compound]
average bladder CFU burden [5]: 6.1 log10 CFU

COC1[C@@H](OP(=O)(O)OCCCCO)[C@@H](COP(=O)(O)OCCCCO)O[C@H]1n1ccc(=O)[nH]c1=O (stereo partly shown) [Nu-2]
pH (2% solution) [1]: 0.99 | Pow [2]: 0.0407

From patent publication US12054509B2, “Antimicrobial compounds, compositions, and uses thereof” (Lakewood Amedex, Inc., priority 2017, dated 2024)
